Earlier results in patent publication US20070232685A1, “CRYSTALLINE FORMS OF N-(BENZO[B]THIEN-3-YLMETHYL)-SULFAMIDE” (priority 2006, published 2007).

System: carbonic anhydrase
Conditions: background statement on a known anticonvulsant; no method given

Structure (SMILES): CC1(C)O[C@@H]2[C@@H](CO[C@@]3(COS(N)(=O)=O)OC(C)(C)O[C@@H]23)O1 [Topiramate]
- carbonic anhydrase inhibition: single digit micromolar
